Measurements from PMC12892976, “Alkylation-based optimization of antifungal FPPS inhibitors yields a potent, broad-spectrum lipophilic zoledronate derivative” (mBio, 2025).

What was measured:
Aspergillus lentulus [1] = assay: checkerboard drug interaction (FICI, MICc); assay type: cell-based;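 note: simplified diagonal checkerboard screen pairing antifungals with FPPS inhibitors, with the interaction index calculated under the Loewe additivity model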
Experimental: (§1) Drug interactions between antifungals and FPPS inhibitors were investigated using a simplified checkerboard diagonal screening method ([45]). […] FICIs were determined according to the Loewe additivity model ([17]).

[2] = system: Trichophyton interdigitale; assay: checkerboard drug interaction (FICI, MICc);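 note: simplified diagonal checkerboard screen pairing antifungals with FPPS inhibitors, FICI values calculated under the Loewe additivity model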
Experimental: as §1

[3] = system: Cryptococcus bacillisporus; assay: MIC broth microdilution (CLSI); assay type: cell-based; details: Cryptococcus bacillisporus NIH179
Experimental: (§2) Antifungal susceptibility was determined by broth microdilution according to the CLSI guidelines described in M27-Ed4 ([16]).

Scedosporium apiospermum = assay: MIC broth microdilution (CLSI); assay type: cell-based; details: Scedosporium apiospermum 04-16-022-2268
Experimental: as §2

Pichia kudriavzevii [4] = assay: MIC broth microdilution (CLSI); assay type: cell-based; details: Pichia kudriavzavii ATCC 6258
Experimental: Antifungal susceptibility was determined by broth microdilution according to the CLSI guidelines described in M27-Ed4 ([16]). […] MFC was determined by back-plating drug-treated cultures from MIC broths onto SDA plates. The MFC was defined as the lowest concentration from which no colonies could be cultured.

Candida tropicalis = assay: MIC broth microdilution (CLSI); assay type: cell-based; details: Candida tropicalis M230640
Experimental: as §2

Paraphyton cookei = assay: checkerboard drug interaction (FICI, MICc);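 note: simplified diagonal checkerboard screen pairing an antifungal with an FPPS inhibitor, FICI computed under the Loewe additivity model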
Experimental: as §1

[5] = system: Cryptococcus bacillisporus; assay: checkerboard drug interaction (FICI, MICc); assay type: cell-based;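 note: interaction of antifungals with FPPS inhibitors assessed by a simplified diagonal checkerboard screen, with FICI computed under the Loewe additivity model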
Experimental: as §1

Pichia kudriavzevii [6] = assay: checkerboard drug interaction (FICI, MICc); assay type: cell-based;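 note: antifungal plus FPPS inhibitor interactions tested in a simplified diagonal checkerboard screen, with FICI calculated under the Loewe additivity model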
Experimental: as §1

Candida auris = assay: MIC broth microdilution (CLSI); assay type: cell-based; details: Candida auris CDC-0384
Experimental: as §2

Epidermophyton floccosum [7] = assay: MIC broth microdilution (CLSI); assay type: cell-based; details: Epidermophyon floccosum R-113
Experimental: as §2

Candida dubliniensis [8] = assay: checkerboard drug interaction (FICI, MICc); assay type: cell-based;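 note: simplified diagonal checkerboard screen pairing antifungals with FPPS inhibitors, FICI calculated under the Loewe additivity model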
Experimental: as §1

[9] = system: Aspergillus frankstonensis; assay: MIC broth microdilution (CLSI); assay type: cell-based; details: Aspergillus frankstonensis DTO 341-F3
Experimental: as §2

Rhizopus oryzae [10] = assay: checkerboard drug interaction (FICI, MICc); assay type: cell-based;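 note: simplified diagonal checkerboard screen pairing antifungals with FPPS inhibitors, FICI calculated under the Loewe additivity model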
Experimental: as §1

Candida dubliniensis [11] = assay: MIC broth microdilution (CLSI); assay type: cell-based; details: Candida dubliniensis M230642
Experimental: as §2

Fusarium oxysporum [12] = assay: MIC broth microdilution (CLSI); assay type: cell-based; details: Fusarium oxysporum 07-200-3012
Experimental: as §2

Fusarium oxysporum [13] = assay: checkerboard drug interaction (FICI, MICc); assay type: cell-based;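 note: simplified diagonal checkerboard screen pairing antifungals with FPPS inhibitors, FICI calculated under the Loewe additivity model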
Experimental: as §1

Aspergillus felis [14] = assay: checkerboard drug interaction (FICI, MICc); assay type: cell-based;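 note: simplified diagonal checkerboard screen pairing antifungals with FPPS inhibitors, FICI calculated under the Loewe additivity model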
Experimental: as §1

Aspergillus lentulus [15] = assay: MIC broth microdilution (CLSI); assay type: cell-based; details: Aspergillus lentulus DTO 341-G7
Experimental: as §2

Aspergillus felis [16] = assay: MIC broth microdilution (CLSI); assay type: cell-based; details: Aspergillus felis IHE87256683D6
Experimental: as §2

Nannizzia nana [17] = assay: checkerboard drug interaction (FICI, MICc); assay type: cell-based
Experimental: as §1

Lomentospora prolificans [18] = assay: MIC broth microdilution (CLSI); assay type: cell-based; details: Lomentospora prolificans 80-16-101-2445
Experimental: as §2

Rhizopus oryzae [19] = assay: MIC broth microdilution (CLSI); assay type: cell-based; details: Rhizopus oryzae 04-14-364-1703
Experimental: as §2

Cryptococcus gattii = assay: MIC broth microdilution (CLSI); assay type: cell-based; details: Cryptococcus gattii PNG27
Experimental: as §2

Microsporum canis = assay: MIC broth microdilution (CLSI); details: Microsporum canis R-232
Experimental: as §2

Lomentospora prolificans [20] = assay: checkerboard drug interaction (FICI, MICc)
Experimental: as §1

Cryptococcus tetragattii = assay: MIC broth microdilution (CLSI); assay type: cell-based; details: Cryptococcus tetragattii WM779
Experimental: as §2

Nannizzia gypsea [21] = assay: MIC broth microdilution (CLSI); assay type: cell-based; details: Nannizzia gypsea R-131
Experimental: as §2

Aspergillus terreus [22] = assay: MIC broth microdilution (CLSI); assay type: cell-based; details: Aspergillus terreus 75-16-089-2500
Experimental: as §2

Nannizzia gypsea [23] = assay: checkerboard drug interaction (FICI, MICc);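 note: simplified diagonal checkerboard screen pairing antifungals with FPPS inhibitors, FICI derived using the Loewe additivity model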
Experimental: as §1

Aspergillus niger = assay: MIC broth microdilution (CLSI); assay type: cell-based; details: Aspergillus niger 111
Experimental: as §2

Nannizzia nana [24] = assay: MIC broth microdilution (CLSI); assay type: cell-based; details: Nannizzia nana R-133
Experimental: as §2

Aspergillus terreus [25] = assay: checkerboard drug interaction (FICI, MICc); assay type: cell-based;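 note: simplified diagonal checkerboard screen pairing antifungals with FPPS inhibitors, FICI derived by the Loewe additivity model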
Experimental: as §1

Epidermophyton floccosum [26] = assay: checkerboard drug interaction (FICI, MICc)
Experimental: as §1

[27] = system: Cryptococcus deneoformans; assay: checkerboard drug interaction (FICI, MICc); assay type: cell-based
Experimental: as §1

Fusarium solani = assay: MIC broth microdilution (CLSI); details: Fusarium solani 04-16-056-1862
Experimental: as §2

Trichophyton tonsurans = assay: MIC broth microdilution (CLSI); details: Trichophyton tonsurans R-168
Experimental: as §2

CCCCCCCCCCn1cc[n+](CC(O)(P(=O)(O)O)P(=O)(O)O)c1 [10-ZOL, Decyl-zoledronate]
8 µg/mL: MIC / MEC (Fusarium oxysporum [12])
≥4: FICI (Aspergillus lentulus [1]; 5FC:10-ZOL) | FICI (Paraphyton cookei; 5FC:10-ZOL) | FICI (Rhizopus oryzae [10]; 5FC:10-ZOL) | FICI (Rhizopus oryzae [10]; CAS:10-ZOL) | FICI (Fusarium oxysporum [13]; 5FC:10-ZOL) | FICI (Fusarium oxysporum [13]; CAS:10-ZOL) | FICI (Aspergillus felis [14]; CAS:10-ZOL) | FICI (Lomentospora prolificans [20]; CAS:10-ZOL)
1.03: FICI (Pichia kudriavzevii [6]; VOR:10-ZOL) | FICI (Fusarium oxysporum [13]; AMB:10-ZOL)
0.5 µg/mL: MIC / MEC (Epidermophyton floccosum [7]) | MIC / MEC (Cryptococcus gattii) | MIC / MEC (Cryptococcus tetragattii) | MIC / MEC (Nannizzia gypsea [21]) | MIC / MEC (Aspergillus terreus [22])
1.17: FICI (Nannizzia nana [17]; VOR:10-ZOL)
1.5: FICI ([2]; 5FC:10-ZOL) | FICI (Paraphyton cookei; AMB:10-ZOL) | FICI (Paraphyton cookei; CAS:10-ZOL) | FICI (Pichia kudriavzevii [6]; KET:10-ZOL) | FICI (Nannizzia nana [17]; FLC:10-ZOL) | FICI (Nannizzia gypsea [23]; ITR:10-ZOL) | FICI (Nannizzia gypsea [23]; VOR:10-ZOL) | FICI (Aspergillus terreus [25]; 5FC:10-ZOL) | FICI (Aspergillus terreus [25]; KET:10-ZOL) | FICI (Aspergillus terreus [25]; VOR:10-ZOL) | FICI (Epidermophyton floccosum [26]; 5FC:10-ZOL)
3: FICI ([2]; CAS:10-ZOL) | FICI (Aspergillus terreus [25]; CAS:10-ZOL)
4: bisphosphonate MICc (Fusarium oxysporum [13]; with 5FC) | bisphosphonate MICc (Aspergillus felis [14]; with CAS)
0.5: bisphosphonate MICc ([2]; with KET) | bisphosphonate MICc ([2]; with VOR) | bisphosphonate MICc (Pichia kudriavzevii [6]; with CAS) | bisphosphonate MICc (Pichia kudriavzevii [6]; with FLC) | bisphosphonate MICc (Rhizopus oryzae [10]; with CAS) | FICI (Fusarium oxysporum [13]; VOR:10-ZOL) | bisphosphonate MICc (Nannizzia nana [17]; with FLC) | FICI (Lomentospora prolificans [20]; ITR:10-ZOL) | bisphosphonate MICc (Lomentospora prolificans [20]; with CAS) | bisphosphonate MICc (Lomentospora prolificans [20]; with ITR) | bisphosphonate MICc (Nannizzia gypsea [23]; with 5FC) | bisphosphonate MICc (Nannizzia gypsea [23]; with AMB) | bisphosphonate MICc (Aspergillus terreus [25]; with AMB) | bisphosphonate MICc (Epidermophyton floccosum [26]; with 5FC) | bisphosphonate MICc (Epidermophyton floccosum [26]; with AMB) | bisphosphonate MICc ([27]; with 5FC) | bisphosphonate MICc ([27]; with FLC) | bisphosphonate MICc ([27]; with ITR)
0.9: FICI (Paraphyton cookei; VOR:10-ZOL)
2.25: FICI (Nannizzia nana [17]; AMB:10-ZOL) | FICI (Nannizzia gypsea [23]; CAS:10-ZOL)
0.53: FICI (Paraphyton cookei; FLC:10-ZOL) | FICI (Paraphyton cookei; ITR:10-ZOL) | FICI (Aspergillus terreus [25]; FLC:10-ZOL)
0.43: FICI (Candida dubliniensis [8]; KET:10-ZOL)
2.17: FICI (Nannizzia nana [17]; CAS:10-ZOL)
1.02: FICI (Aspergillus lentulus [1]; FLC:10-ZOL)
0.25: bisphosphonate MICc ([2]; with AMB) | bisphosphonate MICc (Paraphyton cookei; with 5FC) | bisphosphonate MICc (Paraphyton cookei; with AMB) | bisphosphonate MICc (Paraphyton cookei; with CAS) | bisphosphonate MICc (Paraphyton cookei; with FLC) | bisphosphonate MICc (Paraphyton cookei; with ITR) | bisphosphonate MICc (Paraphyton cookei; with KET) | bisphosphonate MICc (Pichia kudriavzevii [6]; with ITR) | bisphosphonate MICc (Candida dubliniensis [8]; with 5FC) | bisphosphonate MICc (Candida dubliniensis [8]; with FLC) | bisphosphonate MICc (Rhizopus oryzae [10]; with AMB) | bisphosphonate MICc (Fusarium oxysporum [13]; with AMB) | bisphosphonate MICc (Aspergillus felis [14]; with KET) | bisphosphonate MICc (Nannizzia nana [17]; with AMB) | bisphosphonate MICc (Nannizzia nana [17]; with CAS) | bisphosphonate MICc (Nannizzia nana [17]; with KET) | bisphosphonate MICc (Nannizzia gypsea [23]; with FLC) | bisphosphonate MICc (Nannizzia gypsea [23]; with ITR) | bisphosphonate MICc (Nannizzia gypsea [23]; with KET) | bisphosphonate MICc (Nannizzia gypsea [23]; with VOR) | bisphosphonate MICc (Aspergillus terreus [25]; with 5FC) | bisphosphonate MICc (Aspergillus terreus [25]; with FLC) | bisphosphonate MICc (Aspergillus terreus [25]; with ITR) | bisphosphonate MICc (Aspergillus terreus [25]; with KET) | bisphosphonate MICc (Aspergillus terreus [25]; with VOR) | bisphosphonate MICc (Epidermophyton floccosum [26]; with CAS) | bisphosphonate MICc (Epidermophyton floccosum [26]; with FLC) | bisphosphonate MICc (Epidermophyton floccosum [26]; with VOR) | bisphosphonate MICc ([27]; with VOR)
1.55: FICI (Candida dubliniensis [8]; VOR:10-ZOL) | FICI ([27]; ITR:10-ZOL)
0.52: FICI (Aspergillus felis [14]; FLC:10-ZOL)
4 µg/mL: MIC / MEC (Scedosporium apiospermum) | MIC / MEC (Pichia kudriavzevii [4]) | MIC / MEC (Rhizopus oryzae [19]) | MIC / MEC (Aspergillus niger) | MIC / MEC (Fusarium solani)
1.18: FICI (Candida dubliniensis [8]; CAS:10-ZOL)
1.3: FICI ([27]; VOR:10-ZOL)
2 µg/mL: MIC / MEC [3] | MIC / MEC (Candida tropicalis) | MIC / MEC (Candida auris) | MIC / MEC (Aspergillus lentulus [15]) | MIC / MEC (Aspergillus felis [16]) | MIC / MEC (Lomentospora prolificans [18])
0.125: bisphosphonate MICc ([2]; with ITR) | bisphosphonate MICc (Paraphyton cookei; with VOR) | bisphosphonate MICc ([5]; with AMB) | bisphosphonate MICc ([5]; with FLC) | bisphosphonate MICc ([5]; with ITR) | bisphosphonate MICc ([5]; with KET) | bisphosphonate MICc ([5]; with VOR) | bisphosphonate MICc (Pichia kudriavzevii [6]; with VOR) | bisphosphonate MICc (Candida dubliniensis [8]; with AMB) | bisphosphonate MICc (Candida dubliniensis [8]; with CAS) | bisphosphonate MICc (Candida dubliniensis [8]; with ITR) | bisphosphonate MICc (Candida dubliniensis [8]; with KET) | bisphosphonate MICc (Nannizzia nana [17]; with VOR) | bisphosphonate MICc (Epidermophyton floccosum [26]; with ITR) | bisphosphonate MICc ([27]; with AMB) | bisphosphonate MICc ([27]; with KET)
2: FICI (Aspergillus lentulus [1]; CAS:10-ZOL) | bisphosphonate MICc (Aspergillus lentulus [1]; with AMB) | bisphosphonate MICc (Aspergillus lentulus [1]; with CAS) | bisphosphonate MICc (Aspergillus lentulus [1]; with FLC) | bisphosphonate MICc (Pichia kudriavzevii [6]; with AMB) | bisphosphonate MICc (Pichia kudriavzevii [6]; with KET) | bisphosphonate MICc (Rhizopus oryzae [10]; with 5FC) | bisphosphonate MICc (Rhizopus oryzae [10]; with FLC) | bisphosphonate MICc (Rhizopus oryzae [10]; with ITR) | bisphosphonate MICc (Rhizopus oryzae [10]; with KET) | bisphosphonate MICc (Rhizopus oryzae [10]; with VOR) | bisphosphonate MICc (Fusarium oxysporum [13]; with VOR) | FICI (Nannizzia nana [17]; 5FC:10-ZOL) | FICI (Nannizzia nana [17]; ITR:10-ZOL) | bisphosphonate MICc (Lomentospora prolificans [20]; with AMB) | FICI (Nannizzia gypsea [23]; AMB:10-ZOL) | FICI (Epidermophyton floccosum [26]; AMB:10-ZOL)
0.61: FICI ([5]; ITR:10-ZOL) | FICI ([27]; KET:10-ZOL)
1 µg/mL: MIC / MEC [9] | MIC / MEC (Candida dubliniensis [11]) | MIC / MEC (Microsporum canis) | MIC / MEC (Nannizzia nana [24]) | MIC / MEC (Trichophyton tonsurans)
1: bisphosphonate MICc (Aspergillus lentulus [1]; with 5FC) | bisphosphonate MICc (Aspergillus lentulus [1]; with ITR) | bisphosphonate MICc (Aspergillus lentulus [1]; with KET) | bisphosphonate MICc (Aspergillus lentulus [1]; with VOR) | bisphosphonate MICc ([2]; with 5FC) | bisphosphonate MICc ([2]; with CAS) | bisphosphonate MICc ([2]; with FLC) | bisphosphonate MICc ([5]; with 5FC) | bisphosphonate MICc ([5]; with CAS) | FICI (Pichia kudriavzevii [6]; AMB:10-ZOL) | bisphosphonate MICc (Pichia kudriavzevii [6]; with 5FC) | bisphosphonate MICc (Candida dubliniensis [8]; with VOR) | FICI (Rhizopus oryzae [10]; VOR:10-ZOL) | bisphosphonate MICc (Fusarium oxysporum [13]; with CAS) | bisphosphonate MICc (Fusarium oxysporum [13]; with FLC) | bisphosphonate MICc (Fusarium oxysporum [13]; with ITR) | bisphosphonate MICc (Fusarium oxysporum [13]; with KET) | FICI (Aspergillus felis [14]; AMB:10-ZOL) | bisphosphonate MICc (Aspergillus felis [14]; with 5FC) | bisphosphonate MICc (Aspergillus felis [14]; with AMB) | bisphosphonate MICc (Aspergillus felis [14]; with FLC) | bisphosphonate MICc (Aspergillus felis [14]; with ITR) | bisphosphonate MICc (Aspergillus felis [14]; with VOR) | bisphosphonate MICc (Nannizzia nana [17]; with 5FC) | bisphosphonate MICc (Nannizzia nana [17]; with ITR) | bisphosphonate MICc (Lomentospora prolificans [20]; with 5FC) | bisphosphonate MICc (Lomentospora prolificans [20]; with FLC) | bisphosphonate MICc (Lomentospora prolificans [20]; with KET) | bisphosphonate MICc (Lomentospora prolificans [20]; with VOR) | bisphosphonate MICc (Nannizzia gypsea [23]; with CAS) | FICI (Aspergillus terreus [25]; ITR:10-ZOL) | bisphosphonate MICc (Aspergillus terreus [25]; with CAS) | bisphosphonate MICc (Epidermophyton floccosum [26]; with KET) | FICI ([27]; FLC:10-ZOL) | bisphosphonate MICc ([27]; with CAS)
